{"source": "paper PMC9481570", "about": "“A small molecule antagonist of SMN disrupts the interaction between SMN and RNAP II” (Nature Communications, 2022)", "key": {"[1]": {"test_system": "GEMIN2", "assay": "AP-MS chemical proteomics, GEMIN2", "type": "binding, human", "experimental": "(§1) The samples for AP-MS were prepared following pulldown procedure as previously described with minor modifications. Briefly, U2OS cells were lysed in RIPA buffer and the cell lysate was equally divided into two groups: (1) DMSO group (control group): the cell lysate was incubated with 20 μM biotin-labeled compound 1; (2) Cpmd 1 group (sample group): the cell lysate was incubated with 20 μM biotin-labeled compound 1 and 200 μM free compound 1. Each group contains three biological replicates. They were incubated overnight at 4 °C, then 30 μL streptavidin beads (Thermo Fisher, 20353) was added and incubated at 4 °C for 1 h. The beads were then washed with RIPA buffer for 3 times, 10 min/time. […]\n(§2) Samples were analyzed by nanoLC-MS/MS (nanoRSLC, Thermo Fisher) using an Aurora series (Ion Opticks) reversed phase HPLC column (25 cm length × 75 µm inner diameter) and directly injected to an Orbitrap Eclipse (Thermo Fisher) using a 120 min gradient (mobile phase A = 0.1% formic acid, mobile phase B = 99.9% acetonitrile with 0.1% formic acid; hold 2% B for 5 min, 2–6% B in 0.1 min, 6–25% in 100 min, 25–50% in 15 min) at a flow rate of 350 nL/min. Eluted peptide ions were analyzed using a data-dependent acquisition (DDA) method with resolution settings of 120,000 and 15,000 (at m/z 200) for MS1 and MS2 scans, respectively. […]"}, "[2]": {"test_system": "GEMIN6", "assay": "AP-MS chemical proteomics, GEMIN6", "type": "binding, human", "experimental": "as §1, §2"}, "[3]": {"conditions": "biotin-Cmpd 1 pulldown, competition with 200 μM compound 1 relative to DMSO, U2OS lysate"}}, "data": [{"smiles": "Cn1c2c(c(=N)c3c1CCC3)CCC2", "note": "[Compound 1, 4-methyl-2,3,4,5,6,7-hexahydrodicyclopenta[b,e]pyridin-8(1H)-imine]", "values": [{"measurement": "Difference", "setting": "[1]; GN=GEMIN2 (O14893), Cmpd minus DMSO, -LOG(P-value) 2.68522", "result": -5.244}, {"measurement": "log2 FC (Cmpd 1/DMSO), GEMIN2", "setting": "[1]; [3]", "result": "−5.2"}, {"measurement": "Difference", "setting": "[2]; GN=GEMIN6 (Q8WXD5), Cmpd minus DMSO, -LOG(P-value) 2.19893", "result": -5.406}, {"measurement": "log2 FC (Cmpd 1/DMSO), GEMIN6", "setting": "[2]; [3]", "result": "−5.4"}]}]}
